Results taken from ChEMBL document CHEMBL1138565, “Docking, 3D-QSAR studies and in silico ADME prediction on c-Src tyrosine kinase inhibitors” (Eur J Med Chem, 2009).
pIC50, pKi: −log10 of the molar value.

Biological target: Proto-oncogene tyrosine-protein kinase Src (Homo sapiens, UniProt P12931)
Assay: Inhibition of c-Src

Proto-oncogene tyrosine-protein kinase Src, sequence (P12931 2-536 limits assumed): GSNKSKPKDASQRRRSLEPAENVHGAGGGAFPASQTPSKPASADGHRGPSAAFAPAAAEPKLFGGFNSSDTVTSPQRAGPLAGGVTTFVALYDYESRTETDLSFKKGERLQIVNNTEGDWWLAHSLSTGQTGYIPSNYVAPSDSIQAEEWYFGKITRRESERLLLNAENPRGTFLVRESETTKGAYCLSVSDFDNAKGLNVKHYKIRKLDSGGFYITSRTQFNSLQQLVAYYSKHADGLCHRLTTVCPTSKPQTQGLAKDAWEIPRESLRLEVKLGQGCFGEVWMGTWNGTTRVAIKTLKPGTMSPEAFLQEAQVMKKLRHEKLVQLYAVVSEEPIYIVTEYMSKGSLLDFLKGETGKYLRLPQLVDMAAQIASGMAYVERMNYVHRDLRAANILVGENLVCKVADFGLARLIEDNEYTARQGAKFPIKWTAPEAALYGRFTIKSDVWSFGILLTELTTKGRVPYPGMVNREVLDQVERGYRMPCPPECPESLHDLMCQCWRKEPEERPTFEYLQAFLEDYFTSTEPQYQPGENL

| Compound | pIC50 | pKi |
| --- | --- | --- |
| COc1cccc(-c2cn(-c3ccc(CC(=O)NCCO)cc3)c3ncnc(N)c23)c1 | 7.70 |  |
| COc1cccc(-c2cn(-c3ccc(CCN(C)CCO)cc3)c3ncnc(N)c23)c1 | 7.50 |  |
| COc1cccc(-c2cn(C3CCN(CCO)CC3)c3ncnc(N)c23)c1 | 7.60 |  |
| COc1cccc(-c2cn(C3CCN(CC(=O)N(C)C)CC3)c3ncnc(N)c23)c1 | 7.20 |  |
| O=c1[nH]cnc2c1c(-c1ccccc1)cn2-c1ccccc1 | 5.00 |  |
| Nc1ncnc2c1c(-c1cccc(Cl)c1)cn2-c1ccccc1 | 6.70 |  |
| Nc1ncnc2c1c(-c1ccc(O)cc1)cn2C1CCCC1 | 7.70 |  |
| COc1ccccc1-c1cn(-c2ccccc2)c2ncnc(N)c12 | 5.20 |  |
| Nc1ncnc2c1c(-c1ccccc1)cn2C1CCC1 | 7.00 |  |
| CCOC(=O)C[C@@H]1C[C@@H](n2cc(-c3ccc(O)cc3)c3c(N)ncnc32)CN1 | 7.00 |  |
| COc1ccc(-c2cn(C3CCCC3)c3ncnc(N)c23)cc1 | 7.10 |  |
| OC(Cn1ncc2c(NCc3ccc(F)cc3)ncnc21)c1ccccc1 (centres undefined) |  | 5.00 |
| COc1cccc(-c2cn(C3CCN(CC(N)=O)CC3)c3ncnc(N)c23)c1 | 7.70 |  |
| CCOC(=O)C[C@@H]1C[C@@H](n2cc(-c3ccccc3)c3c(N)ncnc32)CN1 | 6.20 |  |
| CCOC(=O)C[C@@H]1C[C@H](n2cc(-c3ccc(O)cc3)c3c(N)ncnc32)CN1C(=O)OC(C)(C)C | 6.50 |  |
| Nc1ncnc2c1c(-c1ccccc1)cn2-c1ccccc1 | 7.00 |  |
| CCOC(=O)C[C@@H]1C[C@@H](n2cc(-c3ccccc3)c3c(N)ncnc32)CN1C(=O)OC(C)(C)C | 6.40 |  |
| CC(C)(C)OC(=O)N1C[C@@H](n2cc(-c3ccc(O)cc3)c3c(N)ncnc32)C[C@H]1CO | 6.50 |  |
| OCCNCCOc1ccc(-n2cc(-c3cccc(O)c3)c3cncnc32)cc1 | 7.40 |  |
| Nc1ncnc2c1c(-c1ccccc1)cn2CCC(CO)CO | 5.60 |  |
| COc1ccc(-c2cn(C3CCC3)c3ncnc(N)c23)cc1 | 6.70 |  |
| COc1cccc(-c2cn(C3CCCC3)c3ncnc(N)c23)c1 | 8.70 |  |
| Nc1ncnc2c1c(-c1ccccc1)cn2[C@H]1CN[C@H](CO)C1 | 6.50 |  |

| Compound | pIC50 | pKi |
| --- | --- | --- |
| CCOC(=O)C[C@@H]1C[C@H](n2cc(-c3ccccc3)c3c(N)ncnc32)CN1 | 7.80 |  |
| COCCN(C)CCN1CCC(n2cc(-c3cccc(OC)c3)c3c(N)ncnc32)CC1 | 7.30 |  |
| Nc1ncnc2c1c(-c1ccccc1)cn2-c1cccc(CO)c1 | 7.20 |  |
| CN(C)C(=O)CN1CCC(n2cc(-c3cccc(O)c3)c3c(N)ncnc32)CC1 | 8.50 |  |
| Nc1ncnc2c1c(-c1ccccc1)cn2[C@H](CO)c1ccccc1 | 5.30 |  |
| Nc1ncnc2c1c(-c1ccccc1)cn2[C@@H](CO)c1ccccc1 | 6.30 |  |
| Nc1ncnc2c1c(-c1ccccc1)cn2-c1cccc(CNCCO)c1 | 8.00 |  |
| Clc1ncnc2c1c(-c1ccccc1)cn2-c1ccccc1 | 5.10 |  |
| Nc1ncnc2c1c(-c1ccccc1)cn2C1CC1 | 6.60 |  |
| Nc1ncnc2c1c(-c1ccccc1)nn2-c1ccccc1 | 6.30 |  |
| Nc1ncnc2c1c(-c1cccc(O)c1)cn2C1CCCC1 | 9.00 |  |
| ClC(Cn1ncc2c(NCc3ccccc3)ncnc21)c1ccccc1 (centres undefined) |  | 5.50 |
| Nc1ncnc2c1c(-c1ccccc1)cn2C1CCCC1 | 6.90 |  |
| Nc1ncnc2c1c(-c1ccccc1)cn2-c1ccccc1CNCCO | 5.30 |  |
| CCOC(=O)C[C@@H]1C[C@H](n2cc(-c3ccc(O)cc3)c3c(N)ncnc32)CN1 | 8.30 |  |
| CCCNc1ncnc2c1cnn2CC(O)c1ccccc1 (centres undefined) |  | 5.00 |
| O=C(O)c1cnc2c(cnn2/C=C/c2ccccc2)c1NCc1ccccc1 |  | 5.40 |
| Nc1ncnc2c1c(-c1ccccc1)cn2CC(CO)CO | 6.70 |  |
| Nc1ncnc2c1c(-c1ccccc1)cn2-c1ccccc1CO | 6.50 |  |
| Nc1ncnc2c1c(-c1ccccc1)cn2-c1ccc(CNCCO)cc1 | 7.50 |  |
| COc1cccc(-c2cn(-c3cccc(CO)c3)c3ncnc(N)c23)c1 | 7.20 |  |
| CC(C)(C)OC(=O)N1C[C@H](n2cc(-c3ccccc3)c3c(N)ncnc32)C[C@H]1CO | 6.90 |  |
| CSc1nc(Nc2cccc(Cl)c2)c2cnn(CC(Cl)c3ccccc3)c2n1 (centres undefined) |  | 6.10 |

| Compound | pIC50 | pKi |
| --- | --- | --- |
| Nc1ncnc2c1c(-c1cccc(O)c1)cn2C1CCC1 | 8.40 |  |
| COc1cccc(-c2cn(CC(CO)CO)c3ncnc(N)c23)c1 | 6.50 |  |
| CC(C)(C)OC(=O)N1C[C@@H](n2cc(-c3ccccc3)c3c(N)ncnc32)C[C@H]1CO | 5.70 |  |
| CCOC(=O)c1ccc(-c2cn(-c3ccccc3)c3ncnc(N)c23)cc1 | 5.00 |  |
| Nc1ncnc2c1c(-c1ccccc1)cn2[C@@H]1CN[C@H](CO)C1 | 6.90 |  |
| CNc1ncnc2c1c(-c1ccccc1)cn2-c1ccccc1 | 5.00 |  |
| Nc1ncnc2c1c(-c1ccccc1)cn2-c1ccc(CO)cc1 | 7.70 |  |
| COc1cccc(-c2cn(-c3ccc(CNCCO)cc3)c3ncnc(N)c23)c1 | 7.50 |  |
| CCOC(=O)C[C@@H]1C[C@@H](n2cc(-c3ccc(O)cc3)c3c(N)ncnc32)CN1C(=O)OC(C)(C)C | 7.50 |  |
| COc1cccc(-c2cn(C3CCC3)c3ncnc(N)c23)c1 | 7.40 |  |
| COC(=O)CN1CCC(n2cc(-c3cccc(OC)c3)c3c(N)ncnc32)CC1 | 7.10 |  |
| ClC(Cn1ncc2c(NCCc3ccccc3)ncnc21)c1ccccc1 (centres undefined) |  | 5.70 |
| COC(=O)CN1CCC(n2cc(-c3cccc(O)c3)c3c(N)ncnc32)CC1 | 9.00 |  |
| Nc1ncnc2c1c(-c1ccc(O)cc1)cn2C1CCC1 | 8.00 |  |
| CC(C)(C)OC(=O)N1C[C@H](n2cc(-c3ccc(O)cc3)c3c(N)ncnc32)C[C@H]1CO | 7.60 |  |
| Nc1ncnc2c1c(-c1ccc(O)cc1)cn2[C@@H]1CN[C@H](CO)C1 | 7.30 |  |
| COc1cccc(-c2cn(-c3ccccc3)c3ncnc(N)c23)c1 | 7.30 |  |
| COc1ccc(-c2cn(-c3ccccc3)c3ncnc(N)c23)cc1 | 6.80 |  |
| Nc1ncnc2c1c(-c1ccc(O)cc1)cn2CC(CO)CO | 6.30 |  |
| CCOC(=O)C[C@@H]1C[C@H](n2cc(-c3ccccc3)c3c(N)ncnc32)CN1C(=O)OC(C)(C)C | 5.30 |  |
| COc1cccc(-c2cn(C3CCN(CCN(C)CCO)CC3)c3ncnc(N)c23)c1 | 8.20 |  |
| COc1cccc(-c2cn(-c3ccc(CCN4CCC(O)CC4)cc3)c3ncnc(N)c23)c1 | 7.70 |  |
| Nc1ncnc2c1c(-c1ccc(O)cc1)cn2[C@H]1CN[C@H](CO)C1 | 7.00 |  |
